The values that follow come from patent publication US10144742B2 (Millennium Pharmaceuticals, Inc., priority 2014, dated 2018).

In one assay the target is hNAMPT protein (Homo sapiens (Human), UniProt P43490). Briefly: NAMPT enzyme assay (TR-FRET/HTRF, BodiPY ligand, anti 6His-Tb). Type of assay: binding. The conditions noted are these: for IC50: read-out: IC50; for inhibition at 1 µM: read-out: Percent Inhibition. From the text: As discussed above, the invention provides compounds that are useful as inhibitors of the enzyme NAMPT. The NAMPT inhibition of a compound of the invention can be measured using a variety of methods known in the art. For example, the ability of a compound of the invention to inhibit NAMPT enzyme activity can be measured using a homogeneous time resolved fluorescence (HTRF) assay using hNAMPT protein and anti 6His-Tb in buffer treated with a compound of the invention (or control e.g., DMSO) and BodiPY ligand. The TR-FRET signal can be measured using a high throughput microplate reader (e.g., Pherastar). Excitation can be carried out at 320 nm. The percent inhibition value at a single concentration of compound of the invention can be calculated relative to a control treated sample. A concentration response curve can be generated for each compound of the invention and the curve fitted to generate an IC50 value. […] Cat. No. […] To this solution is added test compounds or vehicle control (DMSO) and BodiPY ligand (structure below). The plate is shaken for 1-2 min, sealed and incubated for 1 hour at rt in the dark. The TR-FRET signal is measured using BMG Pherastar (Lanthascreen protocol on BMG Pherastar). Excitation was carried out at 320 nm, and the ratio of emission of BodiPY (520 nm) to terbium (486 nm) was determined. Concentration response curves are generated by calculating the excitation increase in test compound-treated samples relative to DMSO-treated controls. For the assay method described above, test compound percent inhibition values at a single concentration are calculated relative to control (DMSO) treated samples. Compound concentration response curves are fitted to generate IC50 values from those curves. One skilled in the art will appreciate that these values generated either as percentage inhibition at a single concentration or IC50 values are subject to experimental variation.
hNAMPT protein, sequence (P43490 whole entry): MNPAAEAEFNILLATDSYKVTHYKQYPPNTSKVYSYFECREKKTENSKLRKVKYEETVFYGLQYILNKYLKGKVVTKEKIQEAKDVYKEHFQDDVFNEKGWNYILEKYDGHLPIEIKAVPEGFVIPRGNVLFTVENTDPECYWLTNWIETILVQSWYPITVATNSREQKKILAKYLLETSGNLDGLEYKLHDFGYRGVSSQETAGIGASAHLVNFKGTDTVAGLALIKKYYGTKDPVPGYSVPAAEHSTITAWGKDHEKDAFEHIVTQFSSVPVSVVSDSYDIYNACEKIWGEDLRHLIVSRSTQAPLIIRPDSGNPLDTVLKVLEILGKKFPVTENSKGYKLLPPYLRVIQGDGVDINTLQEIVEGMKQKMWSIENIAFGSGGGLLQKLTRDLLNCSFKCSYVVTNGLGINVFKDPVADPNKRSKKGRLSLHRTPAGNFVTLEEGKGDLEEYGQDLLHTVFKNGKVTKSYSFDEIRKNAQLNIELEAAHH
In general terms: TR-FRET usually uses a lanthanide donor and a delayed reading to cut background.

The test system of another assay is PC3 cells. As to the kind of experiment: PC3 growth inhibition (Cell-titer glo, 72 hours). Type of assay: cell-based. The conditions noted are these: Homo sapiens, PC-3, PC3 cells, 72 hours, Cell-titer glo, read-out: Percent Inhibition (PC3 growth inhibition); for inhibition at 1.667 µM: compound concentration 1.667 μM; for inhibition at 1 µM: compound concentration 1 μM. The method, then:
The ability of a compound of the invention to inhibit the growth of cells can be measured using a variety of methods known in the art. For example, the ability of a compound of the invention to inhibit the growth of PC3 cells can be measured. PC3 cells can be plated and incubated overnight under CO2. For each measurement, a compound of the invention (or vehicle e.g., DMSO) can be diluted with AIM serum free medium and added to the cell plate. The cell plate can then be incubated for 72 h under CO2. Cell-titer glo solution can be added and the plates can be incubated protected from light and the amount of luminescences can be measured. Concentration response curves can be generated by calculating the luminescence increase in test compound treated samples relative to DMSO-treated controls. Percentage remaining viability values at a single concentration can be measured. Growth inhibition (GI50) or cell viability (LD50) values can be determined from those curves.
Compounds of the invention were assayed to measure PC3 growth inhibition at a concentration of 1 μM or 1.667 μM (Table 3). To measure PC3 growth inhibition, PC3 cells that were maintained in PRMI1640 growth medium (Life Technologies; Cat. No. 11875) at 37° C. under 5% CO2 are trypsinized and diluted at a density of 8×10^4 cells/ml, 25 ul per well of cells and plated in 384-well black tissue culture plate. The cells are incubated overnight at 37° C. under 5% CO2. For each measurement, a test compounds or vehicle control (DMSO) are diluted with AIM serum free medium and added to the cell plate. Incubate for 72 hours at 37° C. under 5% CO2. 25 μl Cell-titer glo solution (Promega; Cat. No. G8462) is added and the cell plates are incubated for 10 minutes protected from light. The luminescence is measured. Concentration response curves are generated by calculating the luminescence increase in test compound-treated samples relative to DMSO-treated controls. Percentage remaining viability values at a single concentration, growth inhibition (GI50) or cell viability (LD50) values are determined from those curves. One skilled in the art will appreciate that these values are subject to experimental variation.

Broadly, the IC50 is the concentration needed to halve the response being measured. As a reminder, the inhibition is the relative decrease from the control value, in per cent.

Each structure is given as a SMILES string. Read-outs that look alike come from different tables or passages of the source.

As for `O=C(NCCc1ncc[nH]1)c1ccc2nc(N3CCCCC3)c(-c3ccc(F)cc3)nc2c1` [Compound I-1, 3-(4-Fluorophenyl)-N-[2-(1H-imidazol-2-yl)ethyl]-2-(piperidin-1-yl)quinoxaline-6-carboxamide], at hNAMPT protein (NAMPT IC50 range class), the IC50 was in the range of 500 to 1000 nM. For the same compound, the inhibition at 1 µM on hNAMPT protein (compound concentration 1 μM) is 51%. For the same compound, the inhibition at 1.667 µM with PC3 cells turned out to be 3%.

`CC(=O)Nc1cccc(-c2nc3ccc(C(=O)NCCCn4ccnc4)cc3nc2-c2ccccc2)c1` [Compound I-2, 2-(3-acetamidophenyl)-N-[3-(1H-imidazol-1-yl)propyl]-3-phenylquinoxaline-6-carboxamide]: the 50% inhibitory concentration (IC50) at hNAMPT protein (NAMPT IC50 range class) fell in the range of 100 to 500 nM. The inhibition at 1 µM at hNAMPT protein (compound concentration 1 μM) was 77%; in the assay on PC3 cells, -7%.

For `CN1CC=C(c2nc3cc(C(=O)NCCCn4ccnc4)ccc3nc2-c2ccccc2)CC1` [Compound I-3, N-[3-(1H-imidazol-1-yl)propyl]-3-(1-methyl-1,2,3,6-tetrahydropyridin-4-yl)-2-phenylquinoxaline-6-carboxamide], the IC50 at hNAMPT protein (NAMPT IC50 range class) was in the range of 2000 to 10000 nM. In addition, the inhibition at 1 µM at hNAMPT protein (compound concentration 1 μM) amounted to 9%; with PC3 cells, 39%.

For `Cn1cncc1CCNC(=O)c1ccc2nc(N3CCCCC3)c(-c3ccc(F)cc3)nc2c1` [Compound I-4, 3-(4-fluorophenyl)-N-[2-(1-methyl-1H-imidazol-5-yl)ethyl]-2-(piperidin-1-yl)quinoxaline-6-carboxamide], the IC50 at hNAMPT protein (NAMPT IC50 range class) was less than 100 nM. Besides, the inhibition at 1 µM on hNAMPT protein (compound concentration 1 μM) turned out to be 93%. The inhibition at 1.667 µM with PC3 cells was found to be 2%.

Take `O=C(NCCCn1ccnc1)c1ccc2nc(-c3ccncc3)c(-c3ccccc3)nc2c1` [Compound I-5, N-[3-(1H-imidazol-1-yl)propyl]-3-phenyl-2-(pyridin-4-yl)quinoxaline-6-carboxamide]: at hNAMPT protein (NAMPT IC50 range class), the half-inhibitory concentration (IC50) lay in the range of 500 to 1000 nM. The values for the inhibition at 1 µM on hNAMPT protein (compound concentration 1 μM) and with PC3 cells were 53% and -7%, respectively.

In the case of `NC(=O)c1ccc(-c2nc3cc(C(=O)NCCCn4ccnc4)ccc3nc2-c2ccccc2)cc1` [Compound I-6, 3-(4-carbamoylphenyl)-N-[3-(1H-imidazol-1-yl)propyl]-2-phenylquinoxaline-6-carboxamide], at hNAMPT protein (NAMPT IC50 range class), the IC50 fell in the range of 2000 to 10000 nM. Further, the inhibition at 1 µM at hNAMPT protein (compound concentration 1 μM) turned out to be 20%; in the assay on PC3 cells it was 91%.

`O=C1CN(c2nc3ccc(C(=O)NCCCn4ccnc4)cc3nc2-c2ccccc2)CN1` [Compound I-7, N-[3-(1H-imidazol-1-yl)propyl]-2-(4-oxoimidazolidin-1-yl)-3-phenylquinoxaline-6-carboxamide]: the IC50 on hNAMPT protein (NAMPT IC50 range class) is 2000 to 10000 nM. In addition, the inhibition at 1 µM at hNAMPT protein (compound concentration 1 μM) was 12%; in the assay on PC3 cells it was 105%.

Consider `Cc1ccc(CCCNC(=O)c2ccc3nc(N4CCOCC4)c(-c4ccc(F)cc4)nc3c2)cn1` [Compound I-21, 3-(4-Fluorophenyl)-N-[3-(6-methylpyridin-3-yl)propyl]-2-(morpholin-4-yl)quinoxaline-6-carboxamide], for which the concentration for half-maximal inhibition (IC50) at hNAMPT protein (NAMPT IC50 range class) lay within 500 to 1000 nM. The inhibition at 1 µM on hNAMPT protein was 50%.

On to `O=C(c1ccc2nc(-c3ccc(F)cc3)c(-c3ccc(F)cc3)nc2c1)N1CCC(c2cnccn2)C1` (stereo not shown) [Compound I-40, [2,3-bis(4-fluorophenyl)quinoxalin-6-yl][3-(pyrazin-2-yl)pyrrolidin-1-yl]methanone], for which the IC50 on hNAMPT protein (NAMPT IC50 range class) fell in the range of 2000 to 10000 nM. Moreover, the inhibition at 1 µM at hNAMPT protein (compound concentration 1 μM) was 33%.

On to `O=C(NCCc1ncc[nH]1)c1ccc2nc(N3CCC(N4CCOCC4)CC3)c(-c3ccccc3)nc2c1` [Compound I-71, N-[2-(1H-imidazol-2-yl)ethyl]-2-[4-(morpholin-4-yl)piperidin-1-yl]-3-phenylquinoxaline-6-carboxamide], for which the IC50 on hNAMPT protein (NAMPT IC50 range class) was in the range of 100 to 500 nM. For the same compound, the inhibition at 1 µM at hNAMPT protein (compound concentration 1 μM) turned out to be 81%.

For `O=C(c1ccc2nc(-c3ccc(F)cc3)c(-c3ccc(F)cc3)nc2c1)N1CCC(c2ccncc2)C1` (stereo not shown) [Compound I-98, [2,3-bis(4-fluorophenyl)quinoxalin-6-yl][3-(pyridin-4-yl)pyrrolidin-1-yl]methanone], the IC50 at hNAMPT protein (NAMPT IC50 range class) is 1000 to 2000 nM. Moreover, the inhibition at 1 µM at hNAMPT protein (compound concentration 1 μM) stood at 41%.

`O=C(c1ccc2nc(-c3ccc(F)cc3)c(-c3ccc(F)cc3)nc2c1)N1CC(c2ccccn2)C1` [Compound I-110, [2,3-bis(4-fluorophenyl)quinoxalin-6-yl][3-(pyridin-2-yl)azetidin-1-yl]methanone]: the 50% inhibitory concentration (IC50) on hNAMPT protein (NAMPT IC50 range class) lay within 500 to 1000 nM. In addition, the inhibition at 1 µM at hNAMPT protein (compound concentration 1 μM) stood at 66%.

`O=C(c1ccc2nc(-c3ccc(F)cc3)c(-c3ccc(F)cc3)nc2c1)N1CCc2cnccc2C1` [Compound I-160, [2,3-bis(4-fluorophenyl)quinoxalin-6-yl](3,4-dihydro-2,6-naphthyridin-2(1H)-yl)methanone]: the half-inhibitory concentration (IC50) on hNAMPT protein (NAMPT IC50 range class) was in the range of 2000 to 10000 nM. The inhibition at 1 µM on hNAMPT protein (compound concentration 1 μM) is 45%.

As to `Cc1ccc(CCCNC(=O)c2ccc3nc(N4CCCCC4)c(-c4ccc(F)cc4)nc3c2)cn1` [Compound I-185, 3-(4-fluorophenyl)-N-[3-(6-methylpyridin-3-yl)propyl]-2-(piperidin-1-yl)quinoxaline-6-carboxamide], the half-inhibitory concentration (IC50) on hNAMPT protein (NAMPT IC50 range class) was 500 to 1000 nM. For the same compound, on hNAMPT protein (compound concentration 1 μM), the inhibition at 1 µM came out at 57%.

Consider `O=C(c1ccc2nc(-c3ccc(F)cc3)c(-c3ccc(F)cc3)nc2c1)N1CCC(c2ccncc2)CC1` [Compound I-186, [2,3-bis(4-fluorophenyl)quinoxalin-6-yl][4-(pyridin-4-yl)piperidin-1-yl]methanone], for which the IC50 at hNAMPT protein (NAMPT IC50 range class) fell in the range of 2000 to 10000 nM. In addition, the inhibition at 1 µM on hNAMPT protein (compound concentration 1 μM) came to 19%.

For `O=C(c1ccc2nc(-c3ccc(F)cc3)c(-c3ccc(F)cc3)nc2c1)N1CCCC1Cc1cccnc1` (stereo not shown) [Compound I-246, [2,3-bis(4-fluorophenyl)quinoxalin-6-yl][2-(pyridin-3-ylmethyl)pyrrolidin-1-yl]methanone], the 50% inhibitory concentration (IC50) on hNAMPT protein (NAMPT IC50 range class) lay in the range of 2000 to 10000 nM. The inhibition at 1 µM at hNAMPT protein (compound concentration 1 μM) came to 30%.

As to `O=C(c1ccc2nc(-c3ccc(F)cc3)c(-c3ccc(F)cc3)nc2c1)N1CC(n2cccn2)C1` [Compound I-249, [2,3-bis(4-fluorophenyl)quinoxalin-6-yl][3-(1H-pyrazol-1-yl)azetidin-1-yl]methanone], on hNAMPT protein (NAMPT IC50 range class), the half-maximal inhibitory concentration (IC50) is 1000 to 2000 nM. In addition, the inhibition at 1 µM on hNAMPT protein (compound concentration 1 μM) was found to be 45%.

Consider `O=C(NCCCn1ccnc1)c1ccc2nc(-c3ccccc3Cl)c(-c3ccccc3Cl)nc2c1` [Compound I-260, 2,3-bis(2-chlorophenyl)-N-[3-(1H-imidazol-1-yl)propyl]quinoxaline-6-carboxamide], for which the half-maximal inhibitory concentration (IC50) on hNAMPT protein (NAMPT IC50 range class) lay in the range of 2000 to 10000 nM. Further, the inhibition at 1 µM on hNAMPT protein (compound concentration 1 μM) was 19%.

As for `O=C(NCCc1c[nH]c2ccccc12)c1ccc2nc(-c3ccc(F)cc3)c(-c3ccc(F)cc3)nc2c1` [Compound I-293, 2,3-bis(4-fluorophenyl)-N-[2-(1H-indol-3-yl)ethyl]quinoxaline-6-carboxamide], the IC50 at hNAMPT protein (NAMPT IC50 range class) lay in the range of 2000 to 10000 nM. In addition, the inhibition at 1 µM at hNAMPT protein (compound concentration 1 μM) was 26%.

In the case of `O=C(c1ccc2nc(-c3ccc(F)cc3)c(-c3ccc(F)cc3)nc2c1)N1CCC(c2ncccn2)C1` (stereo not shown) [Compound I-294, [2,3-bis(4-fluorophenyl)quinoxalin-6-yl][3-(pyrimidin-2-yl)pyrrolidin-1-yl]methanone], the concentration for half-maximal inhibition (IC50) on hNAMPT protein (NAMPT IC50 range class) lay within 2000 to 10000 nM. The inhibition at 1 µM at hNAMPT protein (compound concentration 1 μM) came out at 22%.

On to `COc1cccc(-c2nc3cc(C(=O)NCCCc4ncc[nH]4)ccc3nc2-c2ccc(F)cc2)n1` [Compound I-495, 2-(4-fluorophenyl)-N-[3-(1H-imidazol-2-yl)propyl]-3-(6-methoxypyridin-2-yl)quinoxaline-6-carboxamide], for which the inhibition at 1 µM at hNAMPT protein (NAMPT inhibition at compound concentration 1 μM) worked out at 96%. Moreover, the IC50 on hNAMPT protein (NAMPT inhibition, IC50 range class) is less than 100 nM.
